From PMC3288074, “Structural and Functional Analysis of Validoxylamine A 7′-phosphate Synthase ValL Involved in Validamycin A Biosynthesis” (PLoS ONE, 2012)

T1: ValL (Streptomyces hygroscopicus, UniProt H2K885)
T1 construct: dimer; selenomethionine-labelled for the 3T7D data set
T1 sequence (H2K885 1-497): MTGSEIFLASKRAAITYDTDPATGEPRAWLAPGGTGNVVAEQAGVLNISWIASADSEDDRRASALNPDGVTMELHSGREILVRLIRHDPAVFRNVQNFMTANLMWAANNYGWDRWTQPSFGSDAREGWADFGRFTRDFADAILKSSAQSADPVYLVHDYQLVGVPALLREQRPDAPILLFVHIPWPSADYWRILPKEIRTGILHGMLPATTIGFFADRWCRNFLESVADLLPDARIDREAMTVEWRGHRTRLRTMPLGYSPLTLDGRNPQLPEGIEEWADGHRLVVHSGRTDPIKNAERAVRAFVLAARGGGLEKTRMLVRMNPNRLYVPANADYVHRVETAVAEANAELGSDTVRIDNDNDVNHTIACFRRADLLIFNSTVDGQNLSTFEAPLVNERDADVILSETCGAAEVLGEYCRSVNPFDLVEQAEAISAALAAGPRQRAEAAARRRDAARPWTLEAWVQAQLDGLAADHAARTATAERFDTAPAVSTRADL


Columns and labels:
ValL = molecular target: T1, ValL; test: X-ray crystallography (co-crystal, […] Å); type: binding; conditions: product analog; active site between N- and C-terminal domains; 5 mM trehalose incubated, 30% trehalose in cryoprotectant; pH 8.5, MgCl2; SeMet protein
[1] = molecular target: the molecule itself; test: dynamic scattering; in solution; data not shown; conditions not given

Molecule | X-ray crystallography (co-crystal, 1.7 Å) (ValL) | stoichiometry N [1]
OC[C@H]1O[C@H](O[C@H]2O[C@H](CO)[C@@H](O)[C@H](O)[C@H]2O)[C@H](O)[C@@H](O)[C@@H]1O [trehalose] | The co-crystallization of ValL/trehalose led to the determination of ValL/trehalose complex structure. | 
Validoxylamine A 7'-phosphate synthase ValL (enzyme, ValL, validoxylamine A 7'-phosphate synthase of the validamycin A gene cluster of Streptomyces hygroscopicus var. jinggangensis 5008; the encoded protein has 497 aa; gene valL cloned into pET28a between EcoRI and BamHI sites; Removal of the tag is not mentioned; The ValL/trehalose structure (3T7D) was obtained from selenomethionine-labelled ValL; the apo structure (3T5T) from native ValL; also …) TGSEIFLASKRAAITYDTDPATGEPRAWLAPGGTGNVVAEQAGVLNISWIASADSEDDRRASALNPDGVTMELHSGREILVRLIRHDPAVFRNVQNFMTANLMWAANNYGWDRWTQPSFGSDAREGWADFGRFTRDFADAILKSSAQSADPVYLVHDYQLVGVPALLREQRPDAPILLFVHIPWPSADYWRILPKEIRTGILHGMLPATTIGFFADRWCRNFLESVADLLPDARIDREAMTVEWRGHRTRLRTMPLGYSPLTLDGRNPQLPEGIEEWADGHRLVVHSGRTDPIKNAERAVRAFVLAARGGGLEKTRMLVRMNPNRLYVPANADYVHRVETAVAEANAELGSDTVRIDNDNDVNHTIACFRRADLLIFNSTVDGQNLSTFEAPLVNERDADVILSETCGAAEVLGEYCRSVNPFDLVEQAEAISAALAAGPRQRAEAAARRRDAARPWTLEAWVQAQLDGLAADHAARTATAERFDTAPAVSTRADL |  | 2
